The nature of experiment [1]: Agonist activity at EP3 receptor in guinea pig uterus assessed as concentration required to reach uterine motility index number 2000. The experiment is classed as functional, Cavia porcellus.
The nature of experiment [2]: Agonist activity at Prostaglandin E2 receptor EP1/EP2 in guinea pig ileum. Conditions: Cavia porcellus. In kind it is functional, tissue-based.
Experiment [3] concerns the target Prostaglandin E2 receptor EP4 subtype (Oryctolagus cuniculus, UniProt Q28691). Nature of the experiment: Agonist activity at rabbit EP4 receptor assessed as relaxation of Kcl-induced tissue contraction by isometric transducer method. In kind it is functional.

Prostaglandin E2 receptor EP4 subtype, sequence (Q28691 whole entry): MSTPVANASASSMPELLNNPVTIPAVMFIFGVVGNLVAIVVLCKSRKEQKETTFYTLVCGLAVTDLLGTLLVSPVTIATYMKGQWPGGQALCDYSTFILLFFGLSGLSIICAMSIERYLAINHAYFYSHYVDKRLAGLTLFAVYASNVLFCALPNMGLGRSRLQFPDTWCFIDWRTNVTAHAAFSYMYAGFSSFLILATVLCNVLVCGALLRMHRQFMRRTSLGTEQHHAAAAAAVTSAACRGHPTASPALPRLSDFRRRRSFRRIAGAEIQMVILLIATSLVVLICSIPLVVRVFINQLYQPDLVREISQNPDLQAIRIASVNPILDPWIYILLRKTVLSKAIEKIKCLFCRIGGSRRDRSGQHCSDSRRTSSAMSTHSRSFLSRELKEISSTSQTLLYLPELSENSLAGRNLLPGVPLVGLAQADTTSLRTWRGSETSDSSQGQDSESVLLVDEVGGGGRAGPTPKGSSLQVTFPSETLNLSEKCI

For `O[C@H](/C=C/[C@@H]1[C@H]2c3cccc(CCc4nnn[nH]4)c3O[C@H]2C[C@H]1O)CC1CCCCC1`, the EC in experiment [1] amounted to 2800 nM. Further, the EC50 turned out to be 3400 nM in experiment [2] and 2.6 nM in experiment [3].
For the compound `O=C(O)CCc1cccc2c1O[C@H]1C[C@@H](O)[C@H](/C=C/[C@@H](O)CC3CCCCC3)[C@@H]21`, the EC in experiment [1] is recorded as 540 nM. Further, the EC50 was 150 nM in experiment [2] and 5.7 nM in experiment [3].

By EC50 is commonly meant the concentration giving half of the maximal effect.

For the origin of these results see ChEMBL document CHEMBL1926534, “Efficient synthesis of a novel m-phenylene derivative as a selective EP4 agonist inducing follicular growth and maturation in the ovary” (Bioorg Med Chem Lett, 2011).
